Assay results as given in US4039652A, “Column method of immunoassay employing an immobilized binding partner” (Miles Laboratories, Inc., priority 1973, dated 1977).
One block for each molecule: values may come before it.

Legend:
digitoxin antibodies = assay: Column radioimmunoassay for digitoxin, Example 4; type: binding, rabbit; details: control = 100%, PBS buffer with 0.1% Tween 20
Protocol: 90 mg of digitoxin was suspended in 4 ml of ethanol at ambient temperature. 4 ml of a 0.1M sodium metaperiodate solution was added dropwise. The resulting solution was stirred for 25 minutes and 4 drops of 0.1M ethylene glycol was added. This solution was slowly added to 130 mg of bovine serum albumin in 4 ml of water previously adjusted to pH 9.5 with 5% K2 CO3. The pH was maintained between 9.0 and 9.5 with 5% K2 CO3. After 45 minutes, 0.05 g of NaBH4 in 4 ml of water was added. After 3 hours the pH was lowered to 6.5 with 1M formic acid. After 1 hour, the pH was raised to pH 8.5 with 1M NH4 OH and the mixture was dialyzed against distilled water overnight at 4° C. The next day, the suspension was centrifuged for 2 hours at 1500 rpm. The supernatant was concentrated to 6 ml in an Amicon U-2 ultrafilter, available from Amicon Corporation, Lexington, Massachusetts, and lyophilized.
The same procedure as described in Example 3 was followed except that the digitoxin-bovine serum albumin conjugate was prepared according to the method described in procedure a. above and this conjugate was dissolved in a few drops of dilute NaOH before being mixed with the PBS buffer.
The same procedure as described in Example 3 was followed.
The same procedure as described in Example 3 was followed except that the columns were equilibrated with 10 ml of PBS buffer containing 0.1% Tween 20, a detergent available from the Atlas Powder Company, Wilmington, Delaware, and that PBS buffer containing 0.1% Tween 20 was used in place of PBS buffer. The standard digitoxin solutions were prepared to the following concentrations: 5 ng/ml, 10 ng/ml, 20 ng/ml, 30 ng/ml, 40 ng/ml, and 50 ng/ml.
The results were as follows (with % bound being calculated based on setting 100% bound as the % bound of the control): […]

digoxin antibodies = assay: Column radioimmunoassay for digoxin (competition with 3-0-succinyl digoxigenin tyrosine 125I); type: binding, rabbit; details: control = 100%, 30 + 30 minutes, pH 7.0
Protocol: 400 mg of digoxin was suspended in 20 ml of absolute ethanol at ambient temperature. 0.45 g of sodium metaperiodate in 20 ml of water was added dropwise with stirring. After 25 minutes, 0.5 ml of 1M ethylene glycol was added. Five minutes later, this reaction mixture was added dropwise with stirring to 560 mg of bovine serum albumin in 20 ml of water previously adjusted to pH 9.5 with 5% K2 CO3. The pH was maintained between 9.0 and 9.5 by the dropwise addition of 5% K2 CO3. After 45 minutes 0.3 g of sodium borohydride in 20 ml of water was added. Three hours later, the pH was lowered to 6.5 with 1M formic acid. After 1 hour, the pH was raised to 8.5 with 1M NH4 OH. The entire reaction mixture was then dialyzed against distilled water overnight at 4° C. The next day, the pH was lowered to 4.5 with 0.1N HCl. After 1 hour at ambient temperature and 3 hours at 4° C., the suspension was centrifuged for 1 hour at 1500 rpm. The precipitate was dissolved in 21 ml of 0.15M NaHCO3, dialyzed against distilled water for 4 days, and lyophilized.
Rabbits were injected with inocula consisting of a 50/50 mixture of 4 mg/ml digoxin-bovine serum albumin conjugate, prepared according to the method described in procedure a., in 0.0075M phosphate-0.15M NaCl buffer (pH 7.0) and Freund's complete adjuvant. Four sites along the neck and back of the animals and each footpad were injected with 0.1 ml of this mixture. This procedure was repeated on the first and third weeks. Also, every second week the rabbits were injected intramuscularly with 0.4 ml of the inoculum. At one month intervals, ear bleedings were taken.
One (1.0) gram of CNBr-activated Sepharose 4B available from Pharmacia AB, Uppsala, Sweden, was added to 200 ml of 0.001N HCl, mixed for 15 minutes, and filtered under vacuum. The swollen Sepharose 4B was then washed with 200 ml of PBS buffer (0.0075 M phosphate-0.15M NaCl, pH 7.0) and resuspended in 3.0 ml of PBS buffer. Whole, unfractionated, diluted antiserum from procedure b. was added with stirring. The reaction mixture was stirred for 2 hours at ambient temperature and then for 22 hours at 4° C. The antibody-coupled Sepharose 4B suspension was washed with 400 ml of PBS buffer and an equal volume of PBS buffer containing 0.1% NaN3 was added. This mixture was in turn diluted with the addition of a 50% suspension of Sepharose 4B in distilled water to give a final dilution of antibody-coupled Sepharose 4B which would bind about half of the radioactive labeled antigen following procedure d. below where the fluid sample tested contained no digoxin. Two (2.0) ml volumes of the diluted antibody-coupled Sepharose 4B were added to 3 ml plastic Stylex syringes, available from Pharmaseal Laboratories, Glendale, California, fitted with polyethylene support disks to give 1 ml Sepharose 4B columns.
The columns were then equilibrated with 10 ml volumes of PBS buffer and allowed to drain. Standard digoxin solutions were prepared for the following digoxin concentrations: 0.5 ng/ml, 1.0 ng/ml, 2.0 ng/ml, 3.0 ng/ml, 4.0 ng/ml, and 5.0 ng/ml. A control containing no digoxin and the six digoxin standards were added to columns prepared according to procedure c. above in 0.5 ml volumes and allowed to incubate for 30 minutes. The reference sample containing 3-0-succinyl digoxigenin tyrosine ^125 I solution was then added to each column in 0.5 ml portions and allowed to incubate for 30 minutes. The columns were then counted using a Gammacord gamma counter. The columns were washed three times with 3.0 ml volumes of PBS buffer and counted again. The results were as follows (with % bound being calculated based on setting 100% as the % bound of the control): […]

HPL antibodies [1] = assay: Column saturation radioimmunoassay for human placental lactogen (competition with 125I-HPL), Example 2; type: binding, rabbit; details: control = 100%, 30 minutes, pH 8.0
Protocol: Rabbits were injected with priming inocula consisting of a 50/50 mixture of 2.8 mg/ml HPL antigen in physiological saline solution (0.9%) and Freund's complete adjuvant. Each footpad was injected with 0.2 ml of this mixture. On days 21, 23, 56, 58, 91, 93, 126 and 128, 0.5 ml of booster inocula per day was injected intravenously into the animals. The booster inocula consisted of 0.7 mg/ml HPL antigen in physiological saline solution. Test bleedings were made on days 36 and 70, and on day 140 the animals were exsanguinated
The columns were prepared as in Example 1 using whole unfractionated HPL antiserum from procedure a. above.
The procedure as in Example 1c. was followed except that the borate-human serum albumin buffer was prepared to pH 8.0, the incubation times were 30 minutes, and the reference sample contained HPL labeled with ^125 I. […] The results were as follows (with % bound being calculated based on setting 100% bound as the % bound of the control): […]

HPL antibodies [2] = assay: Column enzyme immunoassay for HPL with peroxidase labeled HPL, Example 6; type: binding; details: for % Color Bound: control = 100; for OD460: optical density of washings at 460 nm (control 1.2)
Protocol: HPL was labeled with peroxidase according to the method described in Immunochemistry 6: 43(1969) with the following modifications: 10 mg (HPL and 10 mg horseradish peroxidase were dissolved in 1.4 ml of 0.05M carbonate buffer (pH 9), 0.05 ml of 3% glutaraldehyde solution was added to the mixture. The mixture was then rotated at ambient temperature for 90 minutes and then dialyzed against 128 ml of 0.1M borate buffer (pH 8) with several buffer changes.
The same procedure as in Example 1b was followed.
The packed columns were equilibrated by adding 20 ml portions of a borate buffer (pH 9) to the columns and allowing them to drain. The borate buffer was prepared as in Example 1c. HPL standards were prepared for the following HPL concentrations 1000 ng/ml and 62 ng/ml. A control containing no HPL and the two HPL standards were added to columns, prepared according to procedure b above in 0.5 ml volumes and allowed to incubate for 25 minutes. The reference sample containing peroxidase labeled HPL, prepared as in procedure a. above, was then added to each column in 0.5 ml portions and allowed to incubate for 25 minutes. The columns were washed with 10 ml volumes of 0.1M borate buffer (pH 8) followed by 3 ml volumes of 0.1M phosphate buffer (pH 6). A substrate-indicator solution, prepared by mixing 0.28 ml of 0.03% H2 O2 in water, 0.1 ml of 0.25% 3,3'-dimethylbenzidine, and 0.12 ml of 0.1M phosphate buffer (pH 6), was added to each column and allowed to incubate for 10 minutes. The columns were each washed with a 3 ml of volume of 0.1N HCl and the optical density (OD) of the washings were read at 460 nm with the following results: […]

Molecule: C[C@H]1O[C@@H](O[C@H]2[C@@H](O)C[C@H](O[C@H]3[C@@H](O)C[C@H](O[C@H]4CC[C@@]5(C)[C@H](CC[C@@H]6[C@@H]5CC[C@]5(C)[C@@H](C7=CC(=O)OC7)CC[C@]65O)C4)O[C@@H]3C)O[C@@H]2C)C[C@H](O)[C@@H]1O [Digitoxin, digitoxin]
% Bound (digitoxin antibodies; Digitoxin concentration 5.0 ng/ml): 83% | % Bound (digitoxin antibodies; Digitoxin concentration 10.0 ng/ml): 73.5% | % Bound (digitoxin antibodies; Digitoxin concentration 20.0 ng/ml): 64% | % Bound (digitoxin antibodies; Digitoxin concentration 30.0 ng/ml): 56.6% | % Bound (digitoxin antibodies; Digitoxin concentration 40.0 ng/ml): 50.2% | % Bound (digitoxin antibodies; Digitoxin concentration 50.0 ng/ml): 42%

Molecule: C[C@H]1O[C@@H](O[C@H]2[C@@H](O)C[C@H](O[C@H]3[C@@H](O)C[C@H](O[C@H]4CC[C@@]5(C)[C@H](CC[C@@H]6[C@@H]5C[C@@H](O)[C@]5(C)[C@@H](C7=CC(=O)OC7)CC[C@]65O)C4)O[C@@H]3C)O[C@@H]2C)C[C@H](O)[C@@H]1O [Digoxin, digoxin]
% Bound (digoxin antibodies; Digoxin concentration 0.5 ng/ml): 92% | % Bound (digoxin antibodies; Digoxin concentration 1.0 ng/ml): 79.5% | % Bound (digoxin antibodies; Digoxin concentration 2.0 ng/ml): 60.2% | % Bound (digoxin antibodies; Digoxin concentration 3.0 ng/ml): 49.0% | % Bound (digoxin antibodies; Digoxin concentration 4.0 ng/ml): 41.3% | % Bound (digoxin antibodies; Digoxin concentration 5.0 ng/ml): 34.7%

% Color Bound (HPL antibodies [2]; HPL concentration 62 ng/ml): 63% | OD460 (HPL antibodies [2]; HPL concentration 62 ng/ml): 0.96 | % Color Bound (HPL antibodies [2]; HPL concentration 1000 ng/ml): 35% | OD460 (HPL antibodies [2]; HPL concentration 1000 ng/ml): 0.78
B1: HPL: human placental lactogen (HPL) (protein, UniProt P0DML2 27-217, looked up)
Chorionic somatomammotropin …: VQTVPLSRLFDHAMLQAHRAHQLAIDTYQEFEETYIPKDQKYSFLHDSQTSFCFSDSIPTPSNMEETQQKSNLELLRISLLLIESWLEPVRFLRSMFANNLVYDTSDSDDYHLLKDLEEGIQTLMGRLEDGSRRTGQILKQTYSKFDTNSHNHDALLKNYGLLYCFRKDMDKVETFLRMVQCRSVEGSCGF
% Bound (labeled HPL) (HPL antibodies [1]; HPL concentration 1 ng/ml): 98% | % Bound (labeled HPL) (HPL antibodies [1]; HPL concentration 15 ng/ml): 70% | % Bound (labeled HPL) (HPL antibodies [1]; HPL concentration 62 ng/ml): 42% | % Bound (labeled HPL) (HPL antibodies [1]; HPL concentration 1000 ng/ml): 9%
